Measurements reported in patent EP0103877A1, “Phosphate derivatives, process for preparation thereof and pharmaceutical compositions of the same” (FUJISAWA PHARMACEUTICAL CO., LTD., priority 1982, dated 1984).

System: Fibrosarcoma Meth A
Experiment: Anti-tumor activity against Fibrosarcoma Meth A in mice (mean survival time, T/C)
Type: in vivo
Conditions: T/C x 100 of mean survival time (medicated vs control group); female BALB/c mice inoculated intrapleurally with 5 x 10^5 Meth A cells; compound injected into pleural cavity, 100 pg/0.05 ml/mouse three times (before 14 days, after 1 hour and after 3 days of tumor implantation)
Protocol: Groups of eight female BALB/c mice, aged 8-9 weeks and weighing 18.0-22.5 g were used.
Fibrosarcoma Meth A (hereinafter referred to as Meth A) was successively transferred every 7 days into BALB/c mice by intraperitoneal inoculation of the ascites cells thereof and the Meth A in the ascites cells as harvested 6 or 7 days after the inoculation was used as tumor cells.
Each of the BALB/c mice was inoculated intrapleurally with 5 x 10^5 Meth A cells in 0.1 ml Hanks solution.
Test compound was dissolved in phosphate buffer saline solution, and was injected into pleural cavity to each of the mice in doses of 100 pg/0.05 ml/mouse three times, i.e. before 14 days, after 1 hour and after 3 days of tumor implantation.
The control group was given with a vehicle alone in the same way.
The antitumor activity of the test compound was estimated by comparing mean survival time of the two groups. • T : Mean survival time of the medicated group • C : Mean survival time of the control group

Row | Structure (SMILES) | Anti-tumor activity *a (%)
1 | CCCCCCCCCCCCCCCCCCO[C@H]1[C@@H](O)[C@H](OC)O[C@@H]1COP(=O)([O-])OCC[N+](C)(C)C [Ex 6-(7), Methyl 3-O-octadecyl-β-D-ribofuranoside 5-(choline phosphate)] | 383
2 | CCCCCCCCCCCCCCCCCCO[C@@H]1[C@@H](OC)[C@@H](OC)O[C@@H]1COP(=O)([O-])OCC[N+](C)(C)C [Ex 4-(3), Methyl 2-0-methyl-3-0-octadecyl-a-D-xylofuranoside 5-(choline phosphate)] | 408
3 | CCCCCCCCCCCCCCCCCCOCC(COP(=O)([O-])OCC[N+](C)(C)C)OC (racemic) [Control Compound, (rac)-1-O-Octadecyl-2-0-methyl-glycerol-3-phosphorylcholine, reference compound] | 302.8
